Series [1] deals with MDA-MB-231 cells. Nature of the series: Cytotoxicity assay (CellTiter-Glo 2.0) on MDA-MB-231 cells. Type of series: cell-based, Human. Conditions: incubation 3 days; for IC50: Homo sapiens, 72 h. Put shortly: (§1)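 Seed cells day 0 in respective growth medium; add compounds; incubate for line-specific time; add CellTiter-Glo 2.0, shake, 10 min RT dark; read luminescence; calculate viability and relative IC50.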

Series [2] has as its system 4T1 cells. Nature of the series: Colony forming (clonogenic) assay. Format: cell-based, Mouse. Particulars: 6 days of treatment, Figure 2. The method, then:
Cancer stem cells are characterized by their ability to undergo virtually unlimited divisions. Colony forming assay (or clonogenic assay) is an in vitro assay designed to assess capability of single cells to grow into large colonies through clonal expansion.
4T1 cells were seeded at a density of 500 cells per well of six-well plates in 4T1 medium. Compounds to be tested were added 24 hours after seeding. After 6 days of treatment, the cells were fixed in 4% PFA and stained with 1% aqueous solution of crystal violet. Pictures of the entire wells were acquired, and the area of the positives colonies was evaluated by ImageJ software (Wayne Rasband; NIH).

Series [3] concerns MDA-MB-231 cells. Nature of the series: Scratch (wound healing) assay, cell migration. Type of series: cell-based, Human. Particulars: 24 hours, Figure 1. The method, then:
Cell migration is involved in several pathological cancer processes such as tumor invasion, neoangiogenesis and metastasis. Scratch (or wound healing) assay is a method to study two-dimensional cell migration in vitro. It is based on the observation that cells growing in a monolayer migrate to reestablish cell contacts after a mechanical scratch wound.
The MDA-MB-231 cells were seeded into a 24-well plate and grown to confluent density. A scrape was made in each well using a pipette tip. Then, the cells monolayers were incubated for 2 hours with 5 µg/ml mitomycin C to stop cell proliferation. The cells were treated with the compounds to be tested for 24 hours. The cells were stained using CellMask Green actin tracking stain (cat.no. A57246 from Fisher Scientific) at time zero and at endpoint. Pictures were acquired using a fluorescence microscope (IXM from Molecular Device). The scratch area was measured with the ImageJ software. The recovery of the scratch area was calculated as a percentage of the scratch area at time zero.

Series [4] deals with 4T1 cells. The experiment in a line: Epithelial-mesenchymal transition marker expression by qRT-PCR. Type of series: cell-based, Mouse. Also noted: key: ↗: increased expression; ↘: decreased expression; =: unchanged expression levels. Conditions: 24 hours, expression normalized against RPL13. From the text: The epithelial-mesenchymal transition (hereafter "EMT") is a process by which epithelial cells lose their cell polarity and cell-cell adhesion while gaining migratory and invasive properties to become mesenchymal stem cells. EMT is commonly measured by quantifying both epithelial and mesenchymal marker's expression by quantitative reverse-transcription polymerase chain reaction (hereafter "qRT-PCR"). EMT inhibition is observed when epithelial markers are stable or increased while mesenchymal markers are decreased.
4T1 cells were treated with compounds to be tested or DMSO for 24 hours. 4T1 cells were then harvested directly in NucleoZol lysis buffer (cat. no. 740404.200 from Macherey-Nagel), according to the manufacturer's instructions. Total RNA was extracted using the NucleoSpin RNA set for NucleoZol (cat. no. 740406.50 from Macherey-Nagel). The quantity and purity of RNA was determined using a Quickdrop (Molecular Devices). RT-PCR was performed on 500 ng total RNA using iScript gDNA clear cDNA synthesis Kit (cat.no. 1725035 from Biorad). The qPCR was run on a QuantStudio 5 real time thermocycler (Applied Biosystems), with PowerUp SYBR Green Master Mix (cat.no. A25742 from Fisher Scientific) and the primers listed in Table 16.
Expression data of EMT markers have been normalized against expression data of the housekeeping gene RPL13.
A general note: Real-time PCR tracks product formation cycle by cycle.

The subject of series [5] is RD cells. Nature of the series: Cytotoxicity assay (CellTiter-Glo 2.0) on RD cells. Type of series: cell-based, Human. Conditions: for IC50: Homo sapiens. Put shortly:
as §1

Series [6] relates to RD cells. Nature of the series: Differentiation of RD cells into myotubes (alpha-actinin staining). Format: cell-based, Human. Particulars: 7 days, Figure 3. The protocol:
RD cells are cancer cells of muscle origin that arose from myogenic precursors that fail to complete muscle differentiation. One strategy to stop their progression is to differentiate them into myotubes.
To allow differentiation, RD cells were seeded at a density of 3500 cells/well in a 384-well plate coated with collagen type I, in DMEM (4,5g/L glucose) with L-Gln (cat.no. 41965-039 from Gibco) supplemented with 5% of knockout serum replacement (cat.no. 10828-028 from Gibco), 1% PenStrep (Gibco), 1% MEM NEAA (Gibco) and 0.1 mM 2-mercaptoethanol (Gibco) (hereafter "K5 medium"). Compounds to be tested were then added onto the cells and incubated for 7 days at 37°C. On day 7, cells were fixed with 4% paraformaldehyde solution and immunostained for α-actinin (cat.no. EA-53 from Sigma, at 1/30000).

The subject of the next series is EoL-1 cells. Nature of the series: Cytotoxicity assay (CellTiter-Glo 2.0) on EoL-1 cells. Format: cell-based, Human. Conditions: incubation 1 day; for IC50: Homo sapiens, EOL1, 24 h. In short, it runs like this: as §1
Background: Cellular ATP, detected with luciferase, serves as a proxy for viable cell number.

Series [7] concerns 4T1 cells. Nature of the series: Cytotoxicity assay (CellTiter-Glo 2.0) on 4T1 cells. Format: cell-based, Mouse. Particulars: incubation 2 days; for IC50: Mus musculus, 48 h. Put shortly: as §1
A further series has as its system HUVECs. Nature of the series: Tube formation assay (anti-angiogenic activity). Type of series: cell-based, human. Particulars: incubation 16 to 18 hours; for IC50: Homo sapiens, HUVEC. Put shortly:
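HUVECs plated at 5000 cells/well on reduced growth factor basement membrane matrix, then exposed to compounds for 16 to 18 hours at 37°C. Cells stained with calcein-AM; tube networks imaged by confocal fluorescence microscopy and quantified.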

For the compound `CSc1cc(Oc2ccnc3c2OCC(=O)N3)ccc1NC(=O)Nc1cc(C(C)(C)C)nn1-c1ccccc1` [Compound 006, 1-(3-(tert-butyl)-1-phenyl-1H-pyrazol-5-yl)-3-(2-(methylthio)-4-((3-oxo-3,4-dihydro-2H-pyrido[3,2-b][1,4]oxazin-8-yl)oxy)phenyl)urea], the IC50 – broadly, the concentration at which inhibition is half-maximal – with MDA-MB-231 cells [1] was 1000 to 5000 nM; with RD cells [5] (48 h, 2 day-treatment), 1 to 5 µM; with RD cells [5] (96 h, 4 day-treatment) it was 1 to 5 µM; with EoL-1 cells it was 10 to 100 nM; in the series on 4T1 cells [7] it was 1000 to 5000 nM; in the series on HUVECs it was 100 to 500 nM. The Cytotoxicity result is listed as “++ (50% ≤ cytotoxicity < 85%)” with MDA-MB-231 cells [1]; “++ (50% ≤ cytotoxicity < 85%)” in the series on RD cells [5] (2 day-treatment); “++ (50% ≤ cytotoxicity < 85%)” with RD cells [5] (4 day-treatment); “+++ (cytotoxicity ≥ 85%)” in the series on EoL-1 cells; “+++ (cytotoxicity ≥ 85%)” in the series on 4T1 cells [7]. In addition, the colony growth result with 4T1 cells [2] is given as “inhibition of colony growth”. For the same compound, in the series on MDA-MB-231 cells [3], the “migration in the scratch assay” value is on record as “inhibition of their migration”. Further, in the series on 4T1 cells [4], the “Epithelial markers E-cadherin” value is given as “↗”. In addition, the “Epithelial markers EpCAM” value in the series with 4T1 cells [4] is “↗”. Moreover, the “Mesenchymal markers Fibronectin” value in the series on 4T1 cells [4] was “↘”. The “Mesenchymal markers Vimentin” value in the series with 4T1 cells [4] is on record as “↘”. The differentiation into myotubes result in the series with RD cells [6] was “dose-dependent differentiation into myotubes”. Moreover, the Angiogenesis inhibition result in the series on HUVECs is “+++ (angiogenesis inhibition ≥ 80%)”.

Regarding `CC(C)(C)c1cc(NC(=O)Nc2ccc(Oc3ccnc4c3CCC(=O)N4)cc2C(F)(F)F)n(-c2cncc(F)c2)n1` [Compound 016, 1-[5-tert-butyl-2-(5-fluoro-3-pyridyl)pyrazol-3-yl]-3-[4-[(7-oxo-6,8-dihydro-5H-1,8-naphthyridin-4-yl)oxy]-2-(trifluoromethyl)phenyl]urea], the concentration for half-maximal inhibition (IC50) in the series on MDA-MB-231 cells [1] is 1000 to 5000 nM; with RD cells [5] (48 h, 2 day-treatment), 1 to 5 µM; with RD cells [5] (96 h, 4 day-treatment), 5 to 10 µM; in the series on EoL-1 cells, 10 to 100 nM; with 4T1 cells [7] it was under 1000 nM; in the series with HUVECs it was under 100 nM. For the same compound, the Cytotoxicity entry in the series with MDA-MB-231 cells [1] is “++ (50% ≤ cytotoxicity < 85%)”; in the series with RD cells [5] (2 day-treatment), “++ (50% ≤ cytotoxicity < 85%)”; with RD cells [5] (4 day-treatment), “++ (50% ≤ cytotoxicity < 85%)”; in the series on EoL-1 cells, “+++ (cytotoxicity ≥ 85%)”; with 4T1 cells [7] it was “+++ (cytotoxicity ≥ 85%)”. In the series with 4T1 cells [2], the colony growth entry is on record as “inhibition of colony growth”. In the series on MDA-MB-231 cells [3], the “migration in the scratch assay” value is “inhibition of their migration”. Also, in the series with 4T1 cells [4], the “Epithelial markers E-cadherin” value is given as “↗”. In the series on 4T1 cells [4], the “Epithelial markers EpCAM” value is listed as “↗”. In addition, the “Mesenchymal markers Fibronectin” value in the series on 4T1 cells [4] is recorded as “↘”. The “Mesenchymal markers Vimentin” value with 4T1 cells [4] is “↘”. Also, the Angiogenesis inhibition entry in the series on HUVECs is “+++ (angiogenesis inhibition ≥ 80%)”.

For the compound `Cc1ccc(-n2nc(C(C)(C)C)cc2NC(=O)Nc2ccc(Oc3ccnc4c3CCC(=O)N4)cc2C(F)(F)F)cn1` [Compound 017, 1-[5-tert-butyl-2-(6-methyl-3-pyridyl)pyrazol-3-yl]-3-[4-[(7-oxo-6,8-dihydro-5H-1,8-naphthyridin-4-yl)oxy]-2-(trifluoromethyl)phenyl]urea], the half-maximal inhibitory concentration (IC50) in the series with MDA-MB-231 cells [1] is 1000 to 5000 nM; with RD cells [5] (48 h, 2 day-treatment), 1 to 5 µM; in the series with RD cells [5] (96 h, 4 day-treatment) it was 1 to 5 µM; with EoL-1 cells it was 1 to 10 nM; with 4T1 cells [7], under 1000 nM; with HUVECs, under 100 nM. The Cytotoxicity entry is reported as “++ (50% ≤ cytotoxicity < 85%)” in the series on MDA-MB-231 cells [1]; “++ (50% ≤ cytotoxicity < 85%)” in the series with RD cells [5] (2 day-treatment); “+++ (cytotoxicity ≥ 85%)” in the series with RD cells [5] (4 day-treatment); “++ (50% ≤ cytotoxicity < 85%)” with EoL-1 cells; “+++ (cytotoxicity ≥ 85%)” in the series on 4T1 cells [7]. Besides, the colony growth entry in the series with 4T1 cells [2] is recorded as “inhibition of colony growth”. The “migration in the scratch assay” value in the series with MDA-MB-231 cells [3] is “inhibition of their migration”. The “Epithelial markers E-cadherin” value in the series with 4T1 cells [4] is “↗”. Moreover, the “Epithelial markers EpCAM” value with 4T1 cells [4] is on record as “↗”. For the same compound, in the series with 4T1 cells [4], the “Mesenchymal markers Fibronectin” value is recorded as “↘”. In the series with 4T1 cells [4], the “Mesenchymal markers Vimentin” value is “↘”. For the same compound, the Angiogenesis inhibition entry with HUVECs was “+++ (angiogenesis inhibition ≥ 80%)”.

For the compound `CSc1cc(Oc2ccnc3c2OCC(=O)N3)ccc1NC(=O)Nc1cc(C(C)(C)C)nn1-c1cncc(F)c1` [Compound 018, 1-[5-tert-butyl-2-(5-fluoro-3-pyridyl)pyrazol-3-yl]-3-[2-methylsulfanyl-4-[(3-oxo-4H-pyrido[3,2-b][1,4]oxazin-8-yl)oxy]phenyl]urea], the IC50 was 1000 to 5000 nM in the series with MDA-MB-231 cells [1]; 1 to 5 µM with RD cells [5] (48 h, 2 day-treatment); 1 to 5 µM with RD cells [5] (96 h, 4 day-treatment); 1 to 10 nM with EoL-1 cells; under 1000 nM in the series on 4T1 cells [7]; under 100 nM in the series on HUVECs. Further, the Cytotoxicity entry was “++ (50% ≤ cytotoxicity < 85%)” in the series with MDA-MB-231 cells [1]; “+ (20 % ≤ cytotoxicity < 50%)” in the series on RD cells [5] (2 day-treatment); “++ (50% ≤ cytotoxicity < 85%)” with RD cells [5] (4 day-treatment); “+++ (cytotoxicity ≥ 85%)” in the series with EoL-1 cells; “+++ (cytotoxicity ≥ 85%)” with 4T1 cells [7]. Besides, the “Epithelial markers E-cadherin” value in the series on 4T1 cells [4] was “↗”. Besides, the “Epithelial markers EpCAM” value in the series with 4T1 cells [4] is given as “↗”. For the same compound, in the series on 4T1 cells [4], the “Mesenchymal markers Fibronectin” value is “↘”. Besides, in the series on 4T1 cells [4], the “Mesenchymal markers Vimentin” value is given as “↘”. In the series with RD cells [6], the differentiation into myotubes result is given as “dose-dependent differentiation into myotubes”. For the same compound, in the series on HUVECs, the Angiogenesis inhibition result was “+++ (angiogenesis inhibition ≥ 80%)”.

The record behind these values is patent EP4289427A1, “DIHYDRO[1,8]NAPHTHYRIDIN-7-ONE AND PYRIDO[3,2-B][1,4]OXAZIN-3-ONE FOR USE IN TREATING CANCER, AND METASTASES IN PARTICULAR” (Anagenesis Biotechnologies, priority 2022, dated 2023).
